# Reference: article PMC9929232, “On-demand male contraception via acute inhibition of soluble adenylyl cyclase” (Nature Communications, 2023)
# Several values for one entry are separate records, joined by “and”; a condition that tells them apart may be missing. Equal values may be shown once.
# Legend:
# epididymal mouse sperm = assay: Tyrosine phosphorylation (pY) Western blot of sperm from injected mice; details: for capacitation-induced pY pattern: 50 mg/kg i.p., 1 hour
# Description: For capacitation, sperm were incubated for 90 min in TYH containing 3 mg/ml BSA and 25 mM NaHCO3 in a 37 °C incubator. To control for the consequences of dilution during isolation of epididymal mouse sperm for ex vivo assays, we assessed the ability of bicarbonate to induce a prototypical pattern of tyrosine phosphorylation (pY) which is a widely used molecular hallmark of capacitation[53]. […] For experiments studying sperm from injected mice, ‘swim out’ was performed in 200 μl TYH, which corresponded to a 1:10 dilution from epididymis (20 μg cauda in 200 μl buffer). Capacitation-induced changes were assessed by adding 50 µl of ‘swim out’ sperm to increasing volumes of capacitating TYH buffer.
# Mouse sperm from vehicle- or inhibitor-injected mice were isolated 1 hour post injection from male mice injected (i.p.) with 150 µl of solution containing sAC inhibitor or vehicle. ‘Swim out’ sperm were diluted 1:1 to 1:100 in capacitating TYH media. As control, sperm from vehicle-injected mice were diluted 1:100 in non-capacitating and capacitating TYH buffer. The samples were incubated for 90 min, washed with 1 ml PBS and sedimented by centrifugation at 2000 × g for 3 min. The sedimented sperm were resuspended in 15 μl 2× Laemmli sample buffer, heated for 5 min at 95 °C, supplemented with 8 µl β-mercaptoethanol and heated again for 5 min at 95 °C. For Western blot analysis, proteins were transferred onto PVDF membranes (Thermo Scientific), probed with anti-phosphotyrosine (1:1000, clone 4G10, Merck Millipore) and anti-mouse IgG (1:10,000, Cell Signaling Technology) antibodies, and analyzed using a chemiluminescence detection system. Image lab (Bio-Rad) was used for densitometric analysis of western blots.
# mouse sperm = assay: Flagellar beat frequency of tethered mouse sperm; assay type: cell-based; details: for Beat frequency, Basal: distal 10 μm of flagellum, 5 μM TDI-10229 or 10 nM TDI-11861, mean ± SEM; for Beat frequency, + HCO3-: distal 10 μm, 25 mM NaHCO3, 5 μM TDI-10229 or 10 nM TDI-11861, mean ± SEM
# Description: (§1) An inverted dark-field video microscope (IX73; Olympus) with a 10 x objective (mouse sperm) or a 20 x objective (human sperm) (UPLSAPO, NA 0.8; Olympus) was combined with a high-speed camera (ORCA Fusion; Hamamatsu). Dark-field videos were recorded with a frame rate of 200 Hz. The temperature of the heated stage was set to 37 °C (stage top incubator WSKMX; TOKAI HIT). The images were preprocessed with the ImageJ plugin SpermQ Preparator (Gaussian blur with sigma 0.5 px; subtract background method with radius 5 px) and analyzed using the ImageJ plugin SpermQ[57]. The beat frequency was determined from the highest peak in the frequency spectrum of the curvature time course, obtained by Fast Fourier Transform.
# [1] = biological target: T1, immobilized human sAC protein (Homo sapiens, UniProt Q96PN6); assay: Surface plasmon resonance binding kinetics;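 note: Reference-channel response subtracted from active-channel response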
# T1 construct: recombinant purified His-tagged sACt protein (50 μg/ml)
# T1 sequence (Q96PN6 1-469 limits assumed): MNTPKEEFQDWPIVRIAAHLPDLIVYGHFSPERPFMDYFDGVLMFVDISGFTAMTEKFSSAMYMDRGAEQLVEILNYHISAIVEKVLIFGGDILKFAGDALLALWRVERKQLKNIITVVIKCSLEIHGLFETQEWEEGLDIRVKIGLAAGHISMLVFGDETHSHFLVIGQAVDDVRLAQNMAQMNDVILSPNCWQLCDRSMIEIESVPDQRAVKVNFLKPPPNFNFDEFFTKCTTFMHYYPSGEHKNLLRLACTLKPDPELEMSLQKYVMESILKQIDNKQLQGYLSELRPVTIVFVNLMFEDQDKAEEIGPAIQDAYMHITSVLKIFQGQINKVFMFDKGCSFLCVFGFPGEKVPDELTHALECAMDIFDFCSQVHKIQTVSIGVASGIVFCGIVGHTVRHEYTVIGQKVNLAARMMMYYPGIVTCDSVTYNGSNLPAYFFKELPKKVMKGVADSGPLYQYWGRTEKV
# Description: Association and dissociation rate constants of sAC inhibitors were obtained with a Biacore 8K instrument (Cytiva) using a parallel kinetics protocol. Series S Sensor NTA chips (Cytiva) were prepared by applying recombinant purified His-tagged sACt protein (50 μg/ml) in PBS-P+ buffer (1 mM KH2PO4, 150 mM NaCl, 6 mM Na2HPO4, 0.05% (w/v) P20 Surfactant). The His-tagged sAC protein was captured via Ni^2+-His-tag chelation and covalently immobilized by amine coupling with a 1:1 mixture of 1-ethyl-3-(3-dimethylaminopropyl) carbodiimide and N-hydroxysuccinimide (active channels). After coupling, remaining reactive groups on the chip’s surface were blocked with 1 M ethanolamine followed by 350 mM EDTA to wash away any free Ni^2+. Following preparation, TBS-P+ running buffer (50 mM Tris, 150 mM NaCl, and 0.05% P20 Surfactant) supplemented with 1% DMSO was flowed over the surface of the chip until a stable baseline was obtained. For each sAC inhibitor, which were dissolved in DMSO and diluted in running buffer, increasing concentrations were injected into parallel channels for 120 s at a flow rate of 50 µl/min followed by running buffer for 600 s to allow for dissociation. All experiments included reference channels; i.e., inhibitor run over parallel channels without immobilized protein. […] Curves were fitted, and kon, KD, and koff values were determined using the Biacore 8K Insight Evaluation Software Version 2.0 (Cytiva) and a 1:1 binding kinetics model.
# human sperm [2] = assay: Flagellar beat frequency of tethered human sperm; assay type: cell-based; details: for Beat frequency, Basal: distal 5 µm of flagellum, 5 μM TDI-10229 or 10 nM TDI-11861, mean ± SEM; for Beat frequency, + HCO3-: distal 5 µm, 25 mM NaHCO3, 5 μM TDI-10229 or 10 nM TDI-11861, mean ± SEM
# Description: as §1
# human sperm [3] = assay: cAMP generation in human sperm in vitro, incl. wash-out by dilution; assay type: cell-based; details: 30 minutes
# Description: Samples of human semen were obtained from healthy volunteers with their prior written consent following a protocol approved by Weill Cornell Medicine’s Institutional Review Board (IRB 21-03023495). […] Semen was incubated for 30 min in a 37 °C incubator to liquefy. […] The tubes were incubated at a tilted angle of 45° at 37 °C for 60 min. Motile sperm were allowed to swim up into the HTF layer; immotile sperm and other cells or tissue debris remain in the ejaculate fraction. Up to 3 ml of the HTF layer was transferred to a fresh tube and washed twice in HTF by centrifugation (700 × g, 20 min). The supernatant was removed after the last centrifugation step and the sperm pellet was resuspended in 1 ml HTF. The purity and vitality of each sample was assessed via light microscopy. Sperm cell numbers were determined using a hemocytometer and adjusted to a concentration of 1 × 10^7 cells/ml.
# [4] = swim out sperm mixed with equal volume capacitation media
# [5] = sheet Fig. 2c replicates, 5 μM TDI-10229 or 10 nM TDI-11861 present
# [6] = sheet Fig. 2d replicates, 5 min preincubation in 5 μM TDI-10229 or 10 nM TDI-11861, diluted 1:100 into inhibitor-free media
compound,measurement,setting,value
"Cc1c(Cc2ccccc2)c(-c2cc(Cl)nc(N)n2)nn1C [TDI-10229, reference compound]",capacitation-induced pY pattern,epididymal mouse sperm; diluted 25 fold,restored
same,capacitation-induced pY pattern,epididymal mouse sperm; [4],blocked
same,normalized pY,"epididymal mouse sperm; Fig. S1f, 1:1 capacitating media",1.44 and 0.9739 and 0.9492 and 1.269 and 0.7377 and 0.8308 and 0.9909 and 0.9583
same,normalized pY,"epididymal mouse sperm; Fig. S1f, 1:5 capacitating media",1.231 and 0.8896 and 0.8967 and 1.293 and 1.015 and 0.7938 and 1.073 and 0.7598
same,normalized pY,"epididymal mouse sperm; Fig. S1f, 1:10 capacitating media",1.238 and 0.8061 and 0.8834 and 1.18 and 1.244 and 0.7753 and 1.106 and 0.8286
same,normalized pY,"epididymal mouse sperm; Fig. S1d, 1:1 capacitating media",1.323 and 2.451 and 1.717 and 1.956
same,normalized pY,"epididymal mouse sperm; Fig. S1d, 1:5 capacitating media",1.566 and 2.38 and 1.568 and 1.6103
same,normalized pY,"epididymal mouse sperm; Fig. S1d, 1:10 capacitating media",1.95 and 2.076 and 2.342 and 1.601
same,normalized pY,"epididymal mouse sperm; Fig. S1d, 1:25 capacitating media",1.653 and 2.642 and 2.388
same,normalized pY,"epididymal mouse sperm; Fig. S1d, 1:50 capacitating media",1.946 and 2.557 and 2.122 and 1.827
same,normalized pY,"epididymal mouse sperm; Fig. S1d, 1:100 capacitating media",1.953 and 2.689 and 1.737 and 1.751
same,"Beat frequency, Basal",mouse sperm,10.4 ± 0.8 Hz
same,"Beat frequency, + HCO3-",mouse sperm,11.7 ± 1.8 Hz
same,SPR sensorgram response,"[1]; Fig. 1e, 2.3 nM, Time 1.8 s",-0.005
same,SPR sensorgram response,"[1]; Fig. 1e, 2.3 nM, Time 1.9 s",-0.0004
same,SPR sensorgram response,"[1]; Fig. 1e, 2.3 nM, Time 2 s",1.724e-7
same,SPR sensorgram response,"[1]; Fig. 1e, 7 nM, Time 1.8 s",0.0365
same,SPR sensorgram response,"[1]; Fig. 1e, 7 nM, Time 1.9 s",0.0954
same,SPR sensorgram response,"[1]; Fig. 1e, 7 nM, Time 2 s",0.1127
same,SPR sensorgram response,"[1]; Fig. 1e, 21 nM, Time 1.8 s",0.0362
same,SPR sensorgram response,"[1]; Fig. 1e, 21 nM, Time 1.9 s",0.0362
same,SPR sensorgram response,"[1]; Fig. 1e, 21 nM, Time 2 s",0.0493
same,SPR sensorgram response,"[1]; Fig. 1e, 62 nM, Time 1.8 s",0.4405
same,SPR sensorgram response,"[1]; Fig. 1e, 62 nM, Time 1.9 s",0.5261
same,SPR sensorgram response,"[1]; Fig. 1e, 62 nM, Time 2 s",0.5966
same,SPR sensorgram response,"[1]; Fig. 1e, 185 nM, Time 1.8 s",1.6528
same,SPR sensorgram response,"[1]; Fig. 1e, 185 nM, Time 1.9 s",1.8027
same,SPR sensorgram response,"[1]; Fig. 1e, 185 nM, Time 2 s",1.949
same,SPR sensorgram response,"[1]; Fig. 1e, 555 nM, Time 1.8 s",3.219
same,SPR sensorgram response,"[1]; Fig. 1e, 555 nM, Time 1.9 s",3.5189
same,SPR sensorgram response,"[1]; Fig. 1e, 555 nM, Time 2 s",3.8049
same,SPR sensorgram response,"[1]; Fig. 1e, 1670 nM, Time 1.8 s",10.7814
same,SPR sensorgram response,"[1]; Fig. 1e, 1670 nM, Time 1.9 s",11.5936
same,SPR sensorgram response,"[1]; Fig. 1e, 1670 nM, Time 2 s",12.3892
same,"Beat frequency, Basal",human sperm [2],12.2 ± 0.8 Hz
same,"Beat frequency, + HCO3-",human sperm [2],14.5 ± 0.6 Hz
same,"cAMP, capacitation media",human sperm [3]; [5],0.877 pmol/10^6 sperm and 0.67 pmol/10^6 sperm and 0.652 pmol/10^6 sperm and 0.78 pmol/10^6 sperm and 1.141 pmol/10^6 sperm and 0.8484 pmol/10^6 sperm and 1.0045 pmol/10^6 sperm
same,"cAMP, non-capacitation media",human sperm [3]; [5],0.136 pmol/10^6 sperm and 0.12 pmol/10^6 sperm and 0.2 pmol/10^6 sperm and 0.75 pmol/10^6 sperm and 0.55 pmol/10^6 sperm and 0.7798 pmol/10^6 sperm and 0.493 pmol/10^6 sperm
same,"cAMP, capacitation media",human sperm [3]; [6],1.0484 pmol/10^6 sperm and 0.9036 pmol/10^6 sperm and 1.37 pmol/10^6 sperm and 1.1895 pmol/10^6 sperm and 1.866 pmol/10^6 sperm
same,"cAMP, non-capacitation media",human sperm [3]; [6],0.7172 pmol/10^6 sperm and 0.3596 pmol/10^6 sperm and 1.05 pmol/10^6 sperm and 0.7885 pmol/10^6 sperm and 1.206 pmol/10^6 sperm
Nc1nc(Cl)cc(-c2nn(C(F)F)cc2Cc2ccccc2OCCN2CCOC[C@@H]2CO)n1 [TDI-11861],capacitation-induced pY pattern,epididymal mouse sperm; diluted 100 fold,remained blocked
same,capacitation-induced pY pattern,epididymal mouse sperm; [4],blocked
same,"Beat frequency, Basal",mouse sperm,14.8 ± 1.0 Hz
same,"Beat frequency, + HCO3-",mouse sperm,22.7 ± 1.6 Hz
same,SPR sensorgram response,"[1]; Fig. 1f, 4 nM, Time 1.8 s",0.8425
same,SPR sensorgram response,"[1]; Fig. 1f, 4 nM, Time 1.9 s",0.8424
same,SPR sensorgram response,"[1]; Fig. 1f, 4 nM, Time 2 s",0.8404
same,SPR sensorgram response,"[1]; Fig. 1f, 12.3 nM, Time 1.8 s",0.7083
same,SPR sensorgram response,"[1]; Fig. 1f, 12.3 nM, Time 1.9 s",0.7083
same,SPR sensorgram response,"[1]; Fig. 1f, 12.3 nM, Time 2 s",0.7083
same,SPR sensorgram response,"[1]; Fig. 1f, 37 nM, Time 1.8 s",0.4389
same,SPR sensorgram response,"[1]; Fig. 1f, 37 nM, Time 1.9 s",0.4389
same,SPR sensorgram response,"[1]; Fig. 1f, 37 nM, Time 2 s",0.4389
same,SPR sensorgram response,"[1]; Fig. 1f, 111 nM, Time 1.8 s",1.6715
same,SPR sensorgram response,"[1]; Fig. 1f, 111 nM, Time 1.9 s",1.6715
same,SPR sensorgram response,"[1]; Fig. 1f, 111 nM, Time 2 s",1.5453
same,SPR sensorgram response,"[1]; Fig. 1f, 333 nM, Time 1.8 s",3.2073
same,SPR sensorgram response,"[1]; Fig. 1f, 333 nM, Time 1.9 s",3.4899
same,SPR sensorgram response,"[1]; Fig. 1f, 333 nM, Time 2 s",3.8103
same,"Beat frequency, Basal",human sperm [2],11.4 ± 1.3 Hz
same,"Beat frequency, + HCO3-",human sperm [2],11.0 ± 0.8 Hz
same,"cAMP, capacitation media",human sperm [3]; [5],0.4536 pmol/10^6 sperm and 0.2982 pmol/10^6 sperm and 0.3279 pmol/10^6 sperm and 0.1875 pmol/10^6 sperm and 0.4476 pmol/10^6 sperm and 0.4575 pmol/10^6 sperm and 0.7152 pmol/10^6 sperm and 0.6672 pmol/10^6 sperm and 0.4645 pmol/10^6 sperm and 0.4351 pmol/10^6 sperm and 0.0606 pmol/10^6 sperm and 0.2667 pmol/10^6 sperm
same,"cAMP, non-capacitation media",human sperm [3]; [5],0.6403 pmol/10^6 sperm and 0.8029 pmol/10^6 sperm and 0.2251 pmol/10^6 sperm and 0.2037 pmol/10^6 sperm and 0.6722 pmol/10^6 sperm and 0.7415 pmol/10^6 sperm and 0.6566 pmol/10^6 sperm and 0.7427 pmol/10^6 sperm and 0.4253 pmol/10^6 sperm and 0.8706 pmol/10^6 sperm and 0.1092 pmol/10^6 sperm and 0.7462 pmol/10^6 sperm
same,"cAMP, capacitation media",human sperm [3]; [6],0.7435 pmol/10^6 sperm and 0.3279 pmol/10^6 sperm and 0.4575 pmol/10^6 sperm and 0.7152 pmol/10^6 sperm and 0.6672 pmol/10^6 sperm and 0.4645 pmol/10^6 sperm and 0.4351 pmol/10^6 sperm and 0.0606 pmol/10^6 sperm and 0.2667 pmol/10^6 sperm and 0.2982 pmol/10^6 sperm
same,"cAMP, non-capacitation media",human sperm [3]; [6],0.059 pmol/10^6 sperm and 0.2015 pmol/10^6 sperm and 0.452 pmol/10^6 sperm and 0.1712 pmol/10^6 sperm and 1.016 pmol/10^6 sperm and 0.658 pmol/10^6 sperm and 0.9025 pmol/10^6 sperm and 0.216 pmol/10^6 sperm and 0.84 pmol/10^6 sperm and 0.1317 pmol/10^6 sperm
